The source of these data is publication PMC8151276, “An Integrated Approach toward NanoBRET Tracers for Analysis of GPCR Ligand Engagement” (Molecules, 2021).

One assay addresses T1, ADORA2A (Homo sapiens, UniProt P29274).
T1 construct: purchased Promega (in-house HiBiT-GPCR construct library, NanoBRET)
In words: NanoBRET screen HiBiT-ADORA2A in HEK293. It is filed as binding. The method, then:
(§1) Each tracer candidate was screened across the entire library of HiBiT-GPCR constructs using NanoBRET as the detection modality. As depicted in Figure 4A, the specificity of interactions was evaluated through decrease in BRET due to competitive displacement of a bound tracer by excess parental compound. Each tracer was analyzed for binding to each HiBiT-GPCR fusion in the absence and in the presence of competing parental compound. Briefly, HEK293 cells were transfected with HiBiT-GPCR constructs diluted into promoterless DNA to reduce expression and maximize translocation to the cell surface. Each tracer candidate was then screened at concentrations of 1 μM and 0.1 μM across cells expressing these fusions. Cells were treated for 1.5 h with tracer either alone or in the presence of 20 μM competing parental compound (i.e., control). BRET was measured upon addition of purified LgBiT and subsequent complementation with HiBiT genetically fused to a GPCR. The specificity of interactions was assessed through a decrease in BRET signal due to competitive displacement of the bound tracer. To further gauge the robustness of these interactions, the fold response over the control (i.e., BRETtracer/BRETcontrol) was calculated. We chose a 1.5-fold response, which translates to ≥7-fold signal over noise as the minimal threshold required to score an interaction as positive.
(§2) HiBiT-GPCR DNA constructs were diluted in 10 mM Tris pH 8 to a final concentration of 0.01 μg/μL, arrayed in 96-well plates and stored at −20 °C. For transfection, HEK293 cells were suspended in Opti-MEM (without phenol red) supplemented with 2% fetal bovine serum (Seradigm) and 100 units/mL penicillin–streptomycin (Gibco) at a final concentration of 220,000 cells/mL and dispensed into white 96-well plates at 90 μL/well. Subsequent transfections and screens were carried using an Agilent Bravo Automated Liquid Handling Platform. First, the 96-well HiBiT DNA arrays were diluted 25-fold in Opti-MEM (without serum or phenol red) to a final concentration of 0.0004 μg/μL and 20 μL of the diluted DNAs were transferred into new 96-well plates. Next, promoterless carrier DNA (1 μg/μL) was diluted 25-fold (0.04 μg/μL) and then dispensed into the diluted arrays at 20 μL/well. Following brief mixing, Viafect transfection reagent (Promega) diluted 16-fold into Opti-MEM was dispensed into the plates at 40 μL/well. After mixing by pipetting, plates were incubated for 10 min on the pipetting station deck. The DNA-transfection reagent complexes were then added to plates containing cells. To facilitate the screen, 10 μL of DNA-transfection reagent complexes were added in duplicates to the top 4 and bottom 4 rows, resulting in two identical 48-well arrays per plate. Plates with transfected cells were incubated for 18–20 h at 37 °C/5% CO2. A screen of each tracer across the entire library using two different concentrations requires duplicate plates of transfected cells. Depending on the number of tracers being screened, transfections can be scaled up using the same ratios. The next day, for each tracer, four 20× screening solutions in tracer dilution buffer (Promega) were prepared: two duplicates at final concentration of 20 μM and two duplicates at a final concentration of 2 μM. […] The four resulting solutions were diluted 4-fold in Opti-MEM without serum or phenol red to generate 5× solutions (5 µM and 0.5 µM tracer +/− 100 μM competing compound). To screen the library, a BioTek MultiFlo FX liquid dispenser was used to dispense 22.5 µL of tracer solution to the top 4 rows and 22.5 µL tracer + competing compound solution to the 4 bottom rows. Plates were briefly mixed on an orbital shaker and incubated for 1.5 h at room temperature. […] Plates were briefly mixed on an orbital shaker and incubated for 15 min to allow complementation.
On the technique in general: BRET reads energy transfer from a luciferase to a nearby fluorophore.

A further assay addresses T2, CHRM4 (Homo sapiens, UniProt P08173).
T2 construct: purchased Promega (in-house HiBiT-GPCR construct library, NanoBRET)
T2 sequence (P08173 1-479): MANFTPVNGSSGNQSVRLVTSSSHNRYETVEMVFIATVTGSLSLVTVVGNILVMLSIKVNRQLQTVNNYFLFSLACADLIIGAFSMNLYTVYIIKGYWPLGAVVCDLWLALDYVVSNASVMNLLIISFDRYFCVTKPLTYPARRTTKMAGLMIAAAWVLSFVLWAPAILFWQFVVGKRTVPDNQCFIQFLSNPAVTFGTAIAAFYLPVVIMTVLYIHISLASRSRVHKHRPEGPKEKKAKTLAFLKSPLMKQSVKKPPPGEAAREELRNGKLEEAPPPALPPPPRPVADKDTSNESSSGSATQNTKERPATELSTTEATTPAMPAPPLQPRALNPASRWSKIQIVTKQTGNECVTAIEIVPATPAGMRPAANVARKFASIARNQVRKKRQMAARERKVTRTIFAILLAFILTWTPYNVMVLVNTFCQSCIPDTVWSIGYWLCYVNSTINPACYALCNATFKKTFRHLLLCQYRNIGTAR
Put plainly: NanoBRET screen HiBiT-CHRM4 in HEK293. It is filed as binding. The protocol:
as §1, §2

Setting [1] is: tracer at 0.1μM, listed as amitriptyline-b-2-NB590.
The mark [2] stands for this setting: tracer at 1μM, listed as amitriptyline-b-2-NB590.

T1 sequence (P29274 whole entry): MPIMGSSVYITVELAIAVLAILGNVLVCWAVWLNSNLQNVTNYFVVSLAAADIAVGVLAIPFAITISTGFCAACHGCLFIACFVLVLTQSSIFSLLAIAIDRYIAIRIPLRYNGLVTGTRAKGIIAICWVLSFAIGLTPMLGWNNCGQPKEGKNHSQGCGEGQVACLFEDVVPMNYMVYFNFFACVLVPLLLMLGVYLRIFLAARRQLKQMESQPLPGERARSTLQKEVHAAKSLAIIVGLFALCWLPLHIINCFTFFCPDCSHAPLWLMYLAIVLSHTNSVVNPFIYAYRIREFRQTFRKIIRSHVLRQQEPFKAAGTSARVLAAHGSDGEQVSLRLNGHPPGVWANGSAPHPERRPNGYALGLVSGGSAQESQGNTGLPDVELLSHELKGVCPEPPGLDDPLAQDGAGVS

For `Cc1cc2c(s1)Nc1ccccc1N=C2N1CCN(CCCNC(=O)CCOCCOCCOCCOCCNC(=O)CCc2ccc3n2[B-](F)(F)[N+]2=C(c4ccc[nH]4)C=CC2=C3)CC1` [Olanzapine-a-2-NB590], the “NanoBRET Fold Response” value at ADORA2A (ADORA2A, tracer 0.1μM) was determined as 0.97; on ADORA2A (ADORA2A, tracer 1μM), 0.93; at CHRM4 (CHRM4, tracer 0.1μM), 1.07; on CHRM4 (CHRM4, tracer 1μM), 1.23.

With `N#CN=C(NCCCOc1cccc(CN2CCCCC2)c1)NCCNC(=O)CCOCCOCCOCCOCCNC(=O)CCc1ccc2n1[B-](F)(F)[N+]1=C(c3ccc[nH]3)C=CC1=C2` [Aminopotentidine-2-NB590], the “NanoBRET Fold Response” value on ADORA2A (ADORA2A, tracer 0.1μM) came to 1.05; at ADORA2A (ADORA2A, tracer 1μM) it was 0.99; at CHRM4 (CHRM4, tracer 0.1μM), 1.17; at CHRM4 (CHRM4, tracer 1μM), 1.39.

Consider `Cc1nc2n(c(=O)c1CCN1CCC(c3noc4cc(F)ccc34)CC1)CCCC2OC(=O)NCCOCCOCCOCCOCCNC(=O)CCc1ccc2n1[B-](F)(F)[N+]1=C(c3ccc[nH]3)C=CC1=C2` (stereo not shown) [Risperidone-2-NB590], for which the “NanoBRET Fold Response” value is 0.98 on ADORA2A (ADORA2A, tracer 0.1μM); 0.98 at ADORA2A (ADORA2A, tracer 1μM); 1.10 on CHRM4 (CHRM4, tracer 0.1μM); 1.67 at CHRM4 (CHRM4, tracer 1μM).

For `CN(C)CCC=C1c2ccccc2CCc2ccc(C(=O)NCCNC(=O)CCOCCOCCOCCOCCNC(=O)CCc3ccc4n3[B-](F)(F)[N+]3=C(c5ccc[nH]5)C=CC3=C4)cc21` [Amitriptyline-b-2-NB590], the “NanoBRET Fold Response” value at ADORA2A (setting [1]) stood at 1.07; at ADORA2A (setting [2]) it was 1.20; on CHRM4 (setting [1]) it was 3.79; at CHRM4 (setting [2]), 1.75.
